Broadly, the IC50 is the concentration needed to halve the response being measured.

Holding throughout (settings): Homo sapiens
One assay concerns BxPC-3. The assay is described as follows: MTT assay, BxPC-3. The format is cell-based. On the procedure: (§1) Experiments conducted during the course of developing embodiments for the present invention involved performance of a phenotypic screen of a library of 20,000 small-molecules representing five million compounds. […] Subsequently, a lead optimization campaign was performed to synthesize a series of close analogs. Initially, the 50 analogs were tested in three pancreatic cancer cell lines using MTT assay (Table 1).
(§2) For in vitro studies, compounds were dissolved in DMSO at 10 mM as stock solutions and stored at −20° C. For in vivo studies, QN523 was dissolved in a vehicle containing 5% DMSO, 35% propylene glycol and 60% saline, and administered at 100 uL through intraperitoneal injections.
In general terms: Formazan colour is commonly taken as a measure of viable cells.

A further assay deals with MiaPaCa-2. In words: MTT assay, MiaPaCa-2. On the procedure: Cells were treated with QN523 for 1, 4, 8, 24, 48, 72 h and left in culture in fresh media. MTT assay was performed 72 h after initiation of treatment. Data points represent Mean±SD from three independent experiments.
as §1, §2

Another assay deals with Panc-1. In words: MTT assay, Panc-1. The format is cell-based. On the procedure:
as §1, §2

Where [1] appears, read: BXPC-3, MTT assay, Mean ± SD, three independent experiments, read-out: IC50 Values BxPC-3.
Where [2] appears, read: MIA PaCa-2, read-out: IC50 Values MiaPaCa-2.
The mark [3] stands for this setting: PANC-1, MTT assay, Mean ± SD, three independent experiments, read-out: IC50 Values Panc-1.
[4] abbreviates: BXPC-3, read-out: IC50 Values BxPC-3.
The mark [5] stands for this setting: MIA PaCa-2, read-out: IC50 Values MiaPaCa-2, MTT assay, Mean ± SD, three independent experiments.
[6] abbreviates: PANC-1, read-out: IC50 Values Panc-1.

Structures are written as SMILES. Read-outs that look alike come from different tables or passages of the source. Where only a bound is given, the exact number is not on record here.

With `Cc1ccc2cccc(NC(=O)c3ncccn3)c2n1` [QN660, Pyrimidine-2-carboxylic acid (2-methylquinolin-8-yl)amide], the IC50 in the assay with BxPC-3 (setting [1]), in the assay on MiaPaCa-2 (setting [2]) and with Panc-1 (setting [3]) was greater than 10 µM each time.
`CC(COc1ccccc1)N(CCCl)Cc1ccccc1` (stereo not shown) [pheoxybenzamine, reference compound]: the IC50 with MiaPaCa-2 (MIA PaCa-2, read-out: IC50 in MiaPaCa-2, comparison compounds) was greater than 30 µM.
With `N#C/C(=C\c1cccc(Br)n1)C(=O)Nc1cccc2cccnc12` [QN608], the IC50 in the assay with BxPC-3 (setting [1]), in the assay on MiaPaCa-2 (setting [2]) and in the assay with Panc-1 (setting [3]) was greater than 10 µM throughout.
Take `Cc1cnc(C(=O)Nc2ccc(Br)c3cccnc23)cn1` [QN571, 5-Methylpyrazine-2-carboxylic acid (5-bromoquinolin-8-yl)amide]: the figures for the half-maximal inhibitory concentration (IC50) with BxPC-3 (setting [1]), in the assay on MiaPaCa-2 (setting [2]) and with Panc-1 (setting [3]) were greater than 10 µM, 2.23 ± 0.31 µM and 6.83 ± 1.73 µM, respectively.
In the case of `O=C(Nc1cc(OCCC2CCNCC2)cc2cccnc12)c1ncccn1` [QN165, Pyrimidine-2-carboxylic acid [6-(2-piperidin-4-yl-ethoxy)quinolin-8-yl]amide], the IC50 in the assay on BxPC-3 (setting [1]), with MiaPaCa-2 (setting [2]) and in the assay with Panc-1 (setting [3]) was greater than 10 µM throughout.
As for `Cc1cnc(C(=O)Nc2cc(OCCN(C)C)cc3cccnc23)cn1` [QN148, 5-Methyl-pyrazine-2-carboxylic acid [6-(2-dimethylamino-ethoxy)-quinolin-8-yl]-amide], the IC50 stood at 9.67 ± 0.58 µM in the assay with BxPC-3 (setting [1]), 1.8 ± 0.46 µM in the assay on MiaPaCa-2 (setting [2]) and 4.5 ± 0.5 µM with Panc-1 (setting [3]).
In the case of `O=C(Nc1cccc2cccnc12)c1cccnn1` [QN566, Pyridazine-3-carboxylic acid quinolin-8-ylamide], the half-maximal inhibitory concentration (IC50) with BxPC-3 (setting [4]) was greater than 10 µM; in the assay with MiaPaCa-2 (setting [5]) it was 8.5 ± 1.03 µM; with Panc-1 (setting [6]) it was greater than 10 µM.
As for `Cc1cnc(C(=O)Nc2cc(OCCC3CCNCC3)cc3cccnc23)cn1` [QN164, 5-Methylpyrazine-2-carboxylic acid [6-(2-piperidin-4-yl-ethoxy)quinolin-8-yl]amide], the IC50 was 8.33 ± 1.53 µM in the assay with BxPC-3 (setting [1]), 6.17 ± 1.04 µM with MiaPaCa-2 (setting [2]) and greater than 10 µM in the assay on Panc-1 (setting [3]).
For the compound `CC(C)(C)OC(=O)N1CCC(CCOc2cc(NC(=O)c3ncccn3)c3ncccc3c2)CC1` [QN161, 4-(2-{8-[(Pyrimidine-2-carbonyl)amino]quinolin-6-yloxy}ethyl)piperidine-1-carboxylic acid tert-butyl ester], the IC50 in the assay with BxPC-3 (setting [1]), with MiaPaCa-2 (setting [2]) and in the assay with Panc-1 (setting [3]) was greater than 10 µM throughout.
Consider `COc1cc(NC(=O)c2ncccn2)c2ncccc2c1` [QN113], for which the IC50 in the assay with BxPC-3 (setting [1]) was greater than 10 µM; in the assay on MiaPaCa-2 (setting [2]) it was 1.3 ± 0.35 µM; in the assay on Panc-1 (setting [3]) it was 9 ± 1.41 µM.
On to `Cc1cnc(C(=O)Nc2cc(Cl)cc3cccnc23)cn1` [QN793, N-(6-Chloroquinolin-8-yl)-5-methylpyrazine-2-carboxamide], for which the results for the IC50 in the assay on BxPC-3 (setting [1]), in the assay with MiaPaCa-2 (setting [2]) and in the assay on Panc-1 (setting [3]) were 5.2 ± 0.3 µM, 1.5 ± 0.5 µM and 1.77 ± 0.25 µM, respectively.
With `CC(C)(C)OC(=O)NCCOc1cc(NC(=O)c2ncccn2)c2ncccc2c1` [QN153, (2-{8-[(Pyrimidine-2-carbonyl)amino]quinolin-6-yloxy}ethyl)carbamic acid tert-butyl ester], the 50% inhibitory concentration (IC50) with BxPC-3 (setting [1]), with MiaPaCa-2 (setting [2]) and in the assay on Panc-1 (setting [3]) was greater than 10 µM throughout.
Consider `COc1cc(/C=C(\C#N)C(=O)Nc2cccc3cccnc23)cc(OC)c1OC` [QN610], for which the IC50 in the assay on BxPC-3 (setting [1]), in the assay with MiaPaCa-2 (setting [2]) and in the assay with Panc-1 (setting [3]) was greater than 10 µM throughout.
Consider `Cc1ccc(C(=O)Nc2cccc3cccnc23)cn1` [QN522, 6-Methyl-N-quinolin-8-yl-nicotinamide], for which the IC50 in the assay with BxPC-3 (setting [4]), in the assay on MiaPaCa-2 (setting [5]) and with Panc-1 (setting [6]) was greater than 10 µM throughout.
In the case of `O=C(Nc1cccc2cccnc12)c1ccc(Br)nc1` [QN524, 6-Bromo-N-quinolin-8-yl-nicotinamide], the concentration for half-maximal inhibition (IC50) in the assay with BxPC-3 (setting [4]), in the assay on MiaPaCa-2 (setting [5]) and in the assay on Panc-1 (setting [6]) was greater than 10 µM in each case.
Take `O=C(Nc1cc(OCCN2CCOCC2)cc2cccnc12)c1cnccn1` [QN137, Pyrazine-2-carboxylic acid [6-(2-morpholin-4-yl-ethoxy)-quinolin-8-yl]-amide]: the IC50 in the assay with BxPC-3 (setting [1]) was found to be 5.17 ± 1.61 µM; in the assay on MiaPaCa-2 (setting [2]), 1.7 ± 0.52 µM; in the assay on Panc-1 (setting [3]), 8.17 ± 1.61 µM.
Turning to `CC(C)(C)OC(=O)N1CCC(CCOc2cc(NC(=O)c3cnccn3)c3ncccc3c2)CC1` [QN159, 4-(2-{8-[(Pyrazine-2-carbonyl)amino]quinolin-6-yloxy}ethyl)piperidine-1-carboxylic acid tert-butyl ester], the IC50 in the assay with BxPC-3 (setting [1]) is 3.33 ± 0.58 µM; in the assay on MiaPaCa-2 (setting [2]) it was 3.67 ± 1.15 µM; in the assay with Panc-1 (setting [3]), 9.5 ± 0.5 µM.
`Nc1ccn([C@@H]2O[C@H](CO)[C@@H](O)C2(F)F)c(=O)n1` [Gemcitabine, reference compound]: the IC50 with BxPC-3 (setting [1]) was determined as 0.05 ± 0.02 µM; in the assay with MiaPaCa-2 (setting [2]), 0.11 ± 0.07 µM; in the assay on Panc-1 (setting [3]) it was 0.2 ± 0.1 µM.
Turning to `NCCOc1cc(NC(=O)c2cnccn2)c2ncccc2c1` [QN154, Pyrazine-2-carboxylic acid [6-(2-aminoethoxy)quinolin-8-yl]amide], the IC50 in the assay on BxPC-3 (setting [1]), in the assay with MiaPaCa-2 (setting [2]) and in the assay on Panc-1 (setting [3]) was greater than 10 µM throughout.
As for `NCCOc1cc(NC(=O)c2ncccn2)c2ncccc2c1` [QN162, Pyrimidine-2-carboxylic acid [6-(2-aminoethoxy)quinolin-8-yl]amide], the IC50 in the assay on BxPC-3 (setting [1]), in the assay with MiaPaCa-2 (setting [2]) and in the assay with Panc-1 (setting [3]) was greater than 10 µM throughout.
On to `Cc1cnc(C(=O)Nc2ccc3ncccc3c2)cn1` [QN520, 5-Methylpyrazine-2-carboxylic acid quinolin-6-ylamide], for which the IC50 in the assay on BxPC-3 (setting [1]), in the assay with MiaPaCa-2 (setting [2]) and in the assay on Panc-1 (setting [3]) was greater than 10 µM each time.
Consider `CN(C)Cc1ccc2cccc(NC(=O)c3cnccn3)c2n1` [QN659, Pyrazine-2-carboxylic acid (2-dimethylaminomethyl-quinolin-8-yl)amide], for which the IC50 with BxPC-3 (setting [1]), in the assay on MiaPaCa-2 (setting [2]) and in the assay on Panc-1 (setting [3]) was greater than 10 µM in each case.
As for `O=C(Nc1cccc2cccnc12)c1ccc(F)nc1` [QN532, 6-Fluoro-N-quinolin-8-yl-nicotinamide], the IC50 in the assay on BxPC-3 (setting [4]), in the assay on MiaPaCa-2 (setting [5]) and in the assay on Panc-1 (setting [6]) was greater than 10 µM throughout.
Consider `O=C(Nc1cc(OCCC2CCNCC2)cc2cccnc12)c1cnccn1` [QN163, Pyrazine-2-carboxylic acid [6-(2-piperidin-4-yl-ethoxy)quinolin-8-yl]amide], for which the IC50 in the assay with BxPC-3 (setting [1]), in the assay on MiaPaCa-2 (setting [2]) and in the assay on Panc-1 (setting [3]) was greater than 10 µM each time.
As for `CN(C)CCOc1cc(NC(=O)c2cnccn2)c2ncccc2c1` [QN147, Pyrazine-2-carboxylic acid [6-(2-dimethylamino-ethoxy)-quinolin-8-yl]-amide], the IC50 in the assay with BxPC-3 (setting [1]), in the assay on MiaPaCa-2 (setting [2]) and with Panc-1 (setting [3]) was greater than 10 µM throughout.
For the compound `Cc1cnc(C(=O)Nc2cc(OCCC3CCN(C(=O)OC(C)(C)C)CC3)cc3cccnc23)cn1` [QN160], the IC50 was 9.33 ± 1.15 µM in the assay with BxPC-3 (setting [1]), 9 ± 1.73 µM with MiaPaCa-2 (setting [2]) and 9.67 ± 0.58 µM with Panc-1 (setting [3]).
Regarding `Cc1cnc(C(=O)Nc2cc(OCCN)cc3cccnc23)cn1` [QN156, 5-Methylpyrazine-2-carboxylic acid [6-(2-aminoethoxy)quinolin-8-yl]amide], the IC50 in the assay with BxPC-3 (setting [1]), in the assay on MiaPaCa-2 (setting [2]) and in the assay with Panc-1 (setting [3]) was greater than 10 µM throughout.
With `O=C(Nc1nccc2cccnc12)c1cnccn1` [QN655, Pyrazine-2-carboxylic acid [1,7]naphthyridin-8-ylamide], the IC50 amounted to 7.22 ± 1.02 µM in the assay with BxPC-3 (setting [1]), 7.7 ± 1.53 µM in the assay on MiaPaCa-2 (setting [2]) and 6.72 ± 1.02 µM in the assay on Panc-1 (setting [3]).
On to `O=C(Nc1cccc2cccnc12)c1cnc(Cl)cn1` [QN573, 5-Chloropyrazine-2-carboxylic acid quinolin-8-ylamide], for which the IC50 in the assay with BxPC-3 (setting [4]) was greater than 10 µM; with MiaPaCa-2 (setting [5]), 7 ± 1.3 µM; in the assay with Panc-1 (setting [6]) it was 9.3 ± 0.8 µM.
`O=C(Nc1cccc2cccnc12)c1cnc2ccccc2n1` [QN572, Quinoxaline-2-carboxylic acid quinolin-8-ylamide]: the IC50 in the assay with BxPC-3 (setting [4]), in the assay with MiaPaCa-2 (setting [5]) and with Panc-1 (setting [6]) was greater than 10 µM in each case.
Regarding `Cc1cnc(C(=O)Nc2cccc3ccc(C)nc23)cn1` [QN632, 5-Methylpyrazine-2-carboxylic acid (2-methylquinolin-8-yl)amide], the IC50 in the assay on BxPC-3 (setting [1]), in the assay on MiaPaCa-2 (setting [2]) and in the assay with Panc-1 (setting [3]) was greater than 10 µM in each case.
Consider `Cc1cnc(C(=O)Nc2cccc3ncccc23)cn1` [QN521, 5-Methylpyrazine-2-carboxylic acid quinolin-5-ylamide], for which the IC50 in the assay on BxPC-3 (setting [1]), in the assay with MiaPaCa-2 (setting [2]) and with Panc-1 (setting [3]) was greater than 10 µM throughout.
For the compound `N#C/C(=C\c1ccc(O)c(O)c1)C(=O)Nc1cccc2cccnc12` [QN609], the half-inhibitory concentration (IC50) in the assay with BxPC-3 (setting [1]), in the assay with MiaPaCa-2 (setting [2]) and with Panc-1 (setting [3]) was greater than 10 µM each time.
`Cc1ccc2cccc(NC(=O)c3cnccn3)c2n1` [QN634, Pyrazine-2-carboxylic acid (2-methylquinolin-8-yl)amide]: the IC50 with BxPC-3 (setting [1]), in the assay on MiaPaCa-2 (setting [2]) and in the assay with Panc-1 (setting [3]) was greater than 10 µM throughout.

The record behind these values is patent publication US10457662B2, “Substituted amides for treating and preventing cancer” (The Regents of the University of Michigan, priority 2015, dated 2019).
